Activity calls are given as the source filed them.
Tests used:
Vero [1] = assay: cells; assay type: functional, cell-based; conditions: Chlorocebus sabaeus
Vero [2] = assay: cells; assay type: functional; conditions: Chlorocebus sabaeus
[3] = off-target signal loss in HeLa-CEM21 co-culture – HeLa F-luc CTL cells, cherry-picked, counter-screen for HIV-1 Env fusion inhibitor project, dose response (AID 652040); assay type: functional, cell-based;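 note: potency for signal decrease marking cytotoxic or nonspecific inhibition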
HEK293 [4] = assay: Fluorescence-based counterscreen for potentiators or agonists of NPY-Y2: cell-based high-throughput dose response assay to identify inhibitors of cyclic nucleotide gated ion channel (CNGC) activity. In this assay, the parental HEK293 cell line transfected with a cyclic-nucleotide gated ion channel (CNGC)-based cAMP sensor is used to measure inhibition of isoproterenol-induced CNGC activity by test compound.; assay type: functional; conditions: Homo sapiens
[5] = HIV-1 Env-mediated cell fusion inhibitors, dose response, CCR5-tropic Env (AID 2279); assay type: functional
Aminopeptidase N = biological target: T1, Aminopeptidase N (Plasmodium falciparum FcB1/Columbia, UniProt O96935); assay: P. falciparum M1AAP inhibitors, biochemical, fluorogenic H-Leu-NHMec substrate, 1536-well (AID 1445); design: species or system Plasmodium falciparum 3D7, 3D7
T1 sequence (O96935 whole entry): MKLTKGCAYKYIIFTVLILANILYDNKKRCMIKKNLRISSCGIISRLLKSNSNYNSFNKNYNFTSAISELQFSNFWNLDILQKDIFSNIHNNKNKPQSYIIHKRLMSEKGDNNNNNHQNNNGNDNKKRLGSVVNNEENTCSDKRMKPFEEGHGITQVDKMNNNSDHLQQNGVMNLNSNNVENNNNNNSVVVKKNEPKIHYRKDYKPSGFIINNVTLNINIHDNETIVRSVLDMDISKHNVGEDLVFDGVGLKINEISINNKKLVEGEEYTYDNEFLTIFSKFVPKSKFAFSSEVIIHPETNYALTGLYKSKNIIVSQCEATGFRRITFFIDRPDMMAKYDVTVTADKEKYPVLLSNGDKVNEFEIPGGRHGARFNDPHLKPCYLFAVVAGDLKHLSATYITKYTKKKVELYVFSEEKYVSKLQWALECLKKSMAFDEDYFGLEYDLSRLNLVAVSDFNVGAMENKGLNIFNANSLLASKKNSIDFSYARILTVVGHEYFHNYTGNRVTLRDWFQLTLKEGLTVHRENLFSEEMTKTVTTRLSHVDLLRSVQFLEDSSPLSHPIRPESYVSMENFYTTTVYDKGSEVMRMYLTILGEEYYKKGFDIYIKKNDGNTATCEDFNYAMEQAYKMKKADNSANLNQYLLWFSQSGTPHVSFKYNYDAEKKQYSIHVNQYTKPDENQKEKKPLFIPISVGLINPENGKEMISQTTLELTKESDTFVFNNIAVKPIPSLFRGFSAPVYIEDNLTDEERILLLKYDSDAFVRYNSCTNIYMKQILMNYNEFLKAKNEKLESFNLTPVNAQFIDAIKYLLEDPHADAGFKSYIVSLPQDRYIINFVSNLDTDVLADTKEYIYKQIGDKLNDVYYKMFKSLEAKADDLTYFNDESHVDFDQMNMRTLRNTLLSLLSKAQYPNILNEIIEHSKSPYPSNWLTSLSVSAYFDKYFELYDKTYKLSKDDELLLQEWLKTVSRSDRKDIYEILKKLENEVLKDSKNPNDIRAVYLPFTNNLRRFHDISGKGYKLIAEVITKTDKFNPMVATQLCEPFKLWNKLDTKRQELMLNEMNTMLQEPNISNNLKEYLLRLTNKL

[6] = ZM109 Env clade C HIV-1 fusion inhibitors, dose response, HeLa effector, CEM target cells, luciferase, cherry-pick (AID 652058); assay type: functional, cell-based
[7] = inhibitors of firefly luciferase expression or activity, dose response, H4 neuroglioma cells, luminescence (AID 1990); assay type: functional, cell-based
INS1 = assay: beta cell apoptosis inhibitors, cytokine rescue, dose response, luminescence, retest (AID 449756); assay type: functional, cell-based; conditions: Rattus norvegicus;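 note: cell death triggered by IL-1 beta plus TNF-alpha plus IFN-gamma mixture; protective hits raise ATP signal compared with cytokine alone wells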
[8] = inhibitors of HIV Env-driven cell fusion, dose response, cherry-pick (AID 652057); assay type: functional, cell-based
[9] = biological target: T2, Neuropeptide Y receptor type 1 (Homo sapiens, UniProt P25929); assay: Fluorescence-based counterscreen for agonists of NPY-Y2: cell-based high-throughput dose response assay for agonists of NPY-Y1.; assay type: functional
T2 sequence (P25929 whole entry): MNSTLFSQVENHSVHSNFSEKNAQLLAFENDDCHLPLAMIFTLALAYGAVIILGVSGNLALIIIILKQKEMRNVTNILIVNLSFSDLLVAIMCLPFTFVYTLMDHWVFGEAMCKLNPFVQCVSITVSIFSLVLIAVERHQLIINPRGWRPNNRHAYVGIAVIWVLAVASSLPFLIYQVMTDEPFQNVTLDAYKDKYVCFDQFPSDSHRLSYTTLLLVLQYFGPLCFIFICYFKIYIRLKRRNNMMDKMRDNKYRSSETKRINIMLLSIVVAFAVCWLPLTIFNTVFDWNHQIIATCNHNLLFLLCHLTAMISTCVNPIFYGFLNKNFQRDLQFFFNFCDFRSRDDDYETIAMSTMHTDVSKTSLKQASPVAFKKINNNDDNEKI

[10] = Luminescence Cell-Based Dose Response HTS to Identify Inhibitors of 5'UTR Stem-Loop Driven Prion Protein mRNA Translation in H4 Neuroglioblastoma Cells. [Related pubchem assays: 1827 (Project Summary), 1813 (Primary HTS)]; assay type: functional
BJ = assay: cytotoxicity toward Ras-transformed BJeLR fibroblasts, dose response, cell-based, alamar blue fluorescence, cherrypicked samples (AID 2631); assay type: functional; conditions: Homo sapiens;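 note: confirmatory dose-response assay in RAS-dependent BJ fibroblasts engineered with TERT, LT and ST, with cytotoxicity read by fluorescence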
CAAX prenyl protease 2 = CAAX prenyl protease 2 (Homo sapiens, UniProt Q9Y256); assay: human Rce1 protease inhibitors, dose response, biochemical, yeast membranes, quenched-peptide fluorescence, cherry-pick (AID 588849)
Paired box protein Pax-8 = Paired box protein Pax-8 (Homo sapiens, UniProt Q06710); assay: inhibitors of PAX8-driven TPO luciferase reporter, dose response, RMG-I cells, cherry-pick (AID 687027); assay type: functional, cell-based;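 note: luciferase reporter driven by Pax8 target thyroperoxidase promoter measured by SteadyGlo luminescence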
[11] = inhibitors of SNCA 5'UTR-driven reporter translation, confirmation, H4 neuroglioma cells, luminescence (AID 1988); assay type: functional, cell-based
[12] = biological target: T3, Neuropeptide Y receptor type 2 (Homo sapiens, UniProt P49146); assay: Fluorescence-based cell-based high-throughput dose response assay for agonists of NPY-Y2. [Related pubchem assays: 1703 (Screening assay (CNGC inhibitors).), 1359 (Screening assay (NPY-Y2 potentiators or agonists).), 1304 (Screening assay (NPY-Y1 potentiators or agonists).), 1710 (Screening assay (NPY-Y2 agonists).), 1791 (Summary AID.)]; assay type: functional
T3 sequence (P49146 whole entry): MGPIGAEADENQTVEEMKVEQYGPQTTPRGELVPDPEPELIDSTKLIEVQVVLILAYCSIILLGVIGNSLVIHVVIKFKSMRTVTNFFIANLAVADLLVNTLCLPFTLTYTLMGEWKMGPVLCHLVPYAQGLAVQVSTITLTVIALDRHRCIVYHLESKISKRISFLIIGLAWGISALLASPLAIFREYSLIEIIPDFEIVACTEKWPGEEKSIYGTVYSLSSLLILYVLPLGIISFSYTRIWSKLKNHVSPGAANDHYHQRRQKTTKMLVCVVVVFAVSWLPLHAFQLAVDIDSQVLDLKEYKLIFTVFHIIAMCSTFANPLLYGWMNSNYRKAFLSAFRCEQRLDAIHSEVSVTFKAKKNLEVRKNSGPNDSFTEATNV

[13] = inhibitors of clade B AD8 Env fusion, dose response, cell-based, cherry-pick (AID 652062); assay type: functional;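 note: luciferase signal from cell-cell fusion driven by HIV-1 clade B AD8 Env; potency is for inhibitors of fusion seen as a drop in luminescence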
[14] = CEM21 lymphoblast cell cytotoxicity, dose response, cytotoxicity control for viral fusion inhibitor project, CellTiter-Glo luminescence, cherry-picked (AID 652042); assay type: functional, cell-based;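 note: potency for signal decrease meaning cytotoxicity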
HEK293 [15] = assay: SAR Analysis of small molecule inhibitors of T-cell specific antigen receptor-induced NF-kB activation in a HEK-293T cell line using a luminescence assay - Set 2. [Related pubchem assays (depositor defined):AID435003, AID435012, AID489026]; assay type: functional, cell-based; conditions: Homo sapiens
HEK293 [16] = assay: cytotoxicity in HEK293T NF-kB-Luc cells, SAR follow-up, cytotoxicity control for NF-kB activator project, cell-based, resazurin fluorescence (AID 493251); assay type: functional; conditions: Homo sapiens, HEK293
Jurkat = assay: SAR Analysis of small molecule inhibitors of T-cell specific antigen receptor-induced NF-kB activation in a Jurkat cell line using a luminescence assay - Set 2. [Related pubchem assays (depositor defined):AID435003, AID435012, AID465]; assay type: functional, cell-based; conditions: Homo sapiens

Chain of CAAX prenyl protease 2 (Q9Y256 whole entry): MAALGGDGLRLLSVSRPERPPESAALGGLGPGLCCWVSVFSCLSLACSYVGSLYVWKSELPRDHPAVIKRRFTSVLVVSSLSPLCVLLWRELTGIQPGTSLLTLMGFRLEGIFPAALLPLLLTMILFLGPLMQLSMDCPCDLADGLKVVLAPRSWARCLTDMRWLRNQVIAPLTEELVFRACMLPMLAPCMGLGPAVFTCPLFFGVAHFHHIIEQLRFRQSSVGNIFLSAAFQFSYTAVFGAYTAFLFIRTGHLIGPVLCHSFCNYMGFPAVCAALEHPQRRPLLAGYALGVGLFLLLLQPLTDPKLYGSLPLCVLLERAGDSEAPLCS
Chain of Paired box protein Pax-8 (Q06710 whole entry): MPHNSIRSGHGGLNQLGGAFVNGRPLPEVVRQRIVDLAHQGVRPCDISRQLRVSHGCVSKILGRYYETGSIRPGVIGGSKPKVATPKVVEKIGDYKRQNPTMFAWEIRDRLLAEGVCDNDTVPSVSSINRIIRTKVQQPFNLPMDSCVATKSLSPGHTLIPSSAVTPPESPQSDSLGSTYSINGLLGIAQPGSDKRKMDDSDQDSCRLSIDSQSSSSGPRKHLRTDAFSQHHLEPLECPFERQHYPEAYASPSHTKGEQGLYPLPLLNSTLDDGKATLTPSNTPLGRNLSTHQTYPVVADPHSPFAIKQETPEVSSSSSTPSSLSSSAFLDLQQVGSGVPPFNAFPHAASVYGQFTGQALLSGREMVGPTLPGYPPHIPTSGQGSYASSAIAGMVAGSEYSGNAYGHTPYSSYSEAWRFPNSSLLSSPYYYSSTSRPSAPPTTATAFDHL

O=c1c2ccccc2nc(/C=C/c2cc(Br)ccc2O)n1CCCO
active: IC50 (Vero [1]) > 25 µM | CC50 (Vero [2]) 22.8 µM

O=C(Nc1cc(S(=O)(=O)N2CCCCC2)ccc1Cl)c1ccccc1NS(=O)(=O)c1ccc(F)cc1
> 60 µM (not active): EC50 [10]
inactive: EC50 (BJ) > 133 µM
25.6 µM (not active): EC50 [12]
12.7 µM (not active): EC50 [9]
active: AC50 [3] 6.21 µM | EC50 (HEK293 [4]) 4.53 µM | IC50 [5] 2 µM | IC50 (Aminopeptidase N) 44.9 µM | AC50 [6] 25.6 µM | EC50 [7] 13.8 µM | AC50 (INS1) 3.42 µM | AC50 [8] 28.4 µM | AC50 (CAAX prenyl protease 2) 20.7 µM | AC50 (Paired box protein Pax-8) 5.08 µM | EC50 [11] 13.7 µM | AC50 [13] 10.8 µM | AC50 [14] 32.9 µM

CCCOc1ccc(C(=O)Nc2ccc(NC(=O)c3cc4ccccc4o3)cc2)cc1
inactive: IC50 (HEK293 [15]) > 80 µM | IC50 (HEK293 [16]) > 80 µM | IC50 (Jurkat) > 79 µM

Source: ChEMBL document CHEMBL1201862, “PubChem BioAssay data set” (2004)
